“And” between values parts separate entries of the source, which are not always exact repeats. Equal values may be shown once. Read-outs that look alike come from different tables or passages of the source.
Legend:
[1] = system: U-2 OS cells expressing GFP; assay: Multiplexed MDR detection by flow cytometry (dye uptake, with PI); format: cell-based, human; conditions: U-2 OS GFP; for R4 + PI compens, MAF / R4 + PI, MAF: Rhod-4 AM + PI; for R4 + PI compens, MAF: compensated; for R4 + PI, MAF: uncompensated; for R4, MAF: Rhod-4 AM probe alone;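 on F8 + PI, MAF: MAF computed as 100 × (MFI with inhibitor − MFI without) / MFI with inhibitor, after 5 min inhibitor pre-incubation then 30 min dye loading at 37 °C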;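 on F8, MAF: MAF computed as 100 × (MFI with inhibitor − MFI without) / MFI with inhibitor, after 5 min inhibitor pre-incubation then 30 min dye loading at 37 °C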
U-2 OS cells = assay: as above; format: cell-based, human; conditions: for F8 + PI, MAF: Fluo-8 AM + PI; for F8, MAF: Fluo-8 AM probe alone; for R4 + PI compens, MAF / R4 + PI, MAF: Rhod-4 AM + PI; for R4 + PI compens, MAF: compensated; for R4 + PI, MAF: uncompensated; for R4, MAF: Rhod-4 AM probe alone
CHO K1 cell line = assay: Dye uptake flow cytometry MDR assay; format: cell-based, hamster;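 further: flow cytometry of dye-loaded cells, Kolmogorov-Smirnov D value (0 to 1.0) comparing fluorescence with versus without inhibitor, made negative when the uninhibited control was brighter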
A549 cell line = assay: Dye uptake flow cytometry MDR assay; format: cell-based, human
HeLa cell line = assay: Dye uptake flow cytometry MDR assay; format: cell-based, human
[2] = CHO K1, Fluo-8 AM + propidium iodide, uncompensated data
[3] = CHO K1, Fluo-8 AM probe alone, uncompensated data
[4] = CHO K1, Rhod-4 AM + propidium iodide, compensated data
[5] = CHO K1, Rhod-4 AM + propidium iodide, uncompensated data
[6] = CHO K1, Rhod-4 AM probe alone, uncompensated data
[7] = A549, dye uptake, average of three representative experiments (Table 6)
[8] = HeLa, dye uptake, average of three representative experiments (Table 6)
[9] = CHO K1, dual probes Rhod-4 AM (FL2) + CMFDA (FL1)
[10] = CHO K1, dye uptake, average of three representative experiments (Table 6)
[11] = CHO K1, triple probes CMFDA (FL1) + Rhod-4 AM (FL2) + Pheophorbide A (FL3)
[12] = CHO K1, dual probes Fluo-8 AM (FL1) + Pheophorbide A (FL3)
[13] = CHO K1, dual probes Rhod-4 AM (FL2) + Pheophorbide A (FL3)
[14] = CHO K1, triple probes DiOC2(3) (FL1) + Rhod-4 AM (FL2) + Pheophorbide A (FL3)
[15] = A549, dye uptake, average of three independent experiments (Table 10)
[16] = CHO K1, dye uptake, average of three independent experiments (Table 10)
[17] = CHO K1, dual probes Rhod-4 AM (FL2) + DiOC2(3) (FL1)

Structure (SMILES): CO[C@@H]1[C@@H](OC(N)=O)[C@@H](O)[C@H](Oc2ccc3c(O)c(NC(=O)c4ccc(O)c(CC=C(C)C)c4)c(=O)oc3c2C)OC1(C)C [Novobiocin, novobiocin]
- R4 + PI compens, MAF [1]: 2.8
- R4 + PI, MAF [1]: 27.9
- R4, MAF [1]: 17.9
- F8 + PI, MAF (U-2 OS cells): 12.3
- F8, MAF (U-2 OS cells): 17.9
- R4 + PI compens, MAF (U-2 OS cells): 15.1
- R4 + PI, MAF (U-2 OS cells): 10.7
- R4, MAF (U-2 OS cells): 18.7
- F8 + PI, D-values (CHO K1 cell line; [2]): 0.61
- Fluo-8 ™, D (CHO K1 cell line; [3]): 0.54
- R4 + PI, D-values (CHO K1 cell line; [4]): 0.66
- R4 + PI, D-values (CHO K1 cell line; [5]): 0.7
- Rhod4 ™ (D-values) (CHO K1 cell line; [6]): .64

Structure (SMILES): CC(=O)Oc1ccc2c(c1)Oc1cc(OC(C)=O)ccc1C21OC(=O)c2cc(CCl)ccc21 [CMFDA, chloromethylfluorescein diacetate]
- D-value, Fumitremorgan C (A549 cell line; [7]): 0.21
- D-value, Probenecid (A549 cell line; [7]): 0.29
- D-value, Verapamil (A549 cell line; [7]): 0.04
- D-value, Fumitremorgan C (HeLa cell line; [8]): 0.12
- D-value, Probenecid (HeLa cell line; [8]): 0.03
- D-value, Verapamil (HeLa cell line; [8]): 0
- D-values Post Inhibitor Treatment (compared to uninhibited cells), CsA (CHO K1 cell line; [9]): 0.49
- D-values Post Inhibitor Treatment (compared to uninhibited cells), FTC (CHO K1 cell line; [9]): 0.06
- D-values Post Inhibitor Treatment (compared to uninhibited cells), MK-571 (CHO K1 cell line; [9]): 0.91
- D-values Post Inhibitor Treatment (compared to uninhibited cells), Verapamil (CHO K1 cell line; [9]): 0.1
- D-value, Fumitremorgan C (CHO K1 cell line; [10]): 0.09
- D-value, Probenecid (CHO K1 cell line; [10]): 0.7
- D-value, Verapamil (CHO K1 cell line; [10]): 0.19
- D-values Post Inhibitor Treatment (compared to uninhibited cells), CsA (CHO K1 cell line; [11]): 0.47
- D-values Post Inhibitor Treatment (compared to uninhibited cells), FTC (CHO K1 cell line; [11]): 0.14
- D-values Post Inhibitor Treatment (compared to uninhibited cells), MK-571 (CHO K1 cell line; [11]): 0.89
- D-values Post Inhibitor Treatment (compared to uninhibited cells), Verapamil (CHO K1 cell line; [11]): 0.10

Structure (SMILES): CN(C)C(=O)CCSC(SCCC(=O)O)c1cccc(/C=C/c2ccc3ccc(Cl)cc3n2)c1 (stereo not shown) [MK-571]
- R4 + PI compens, MAF [1]: 43.3
- R4 + PI, MAF [1]: 51.9
- R4, MAF [1]: 49.6
- F8 + PI, MAF (U-2 OS cells): 52.9
- F8, MAF (U-2 OS cells): 65.4
- R4 + PI compens, MAF (U-2 OS cells): 54.5
- R4 + PI, MAF (U-2 OS cells): 49.7
- R4, MAF (U-2 OS cells): 62.8
- F8 + PI, D-values (CHO K1 cell line; [2]): 0.92
- Fluo-8 ™, D (CHO K1 cell line; [3]): 0.89
- R4 + PI, D-values (CHO K1 cell line; [4]): 0.94
- R4 + PI, D-values (CHO K1 cell line; [5]): 0.95
- Rhod4 ™ (D-values) (CHO K1 cell line; [6]): .94

Structure (SMILES): COc1ccc2c3c([nH]c2c1)[C@H](C=C(C)C)N1C(=O)[C@@H]2CCCN2C(=O)[C@@H]1C3 [FTC, fumitremorgin C]
- R4 + PI compens, MAF [1]: 6.2
- R4 + PI, MAF [1]: 25.7
- R4, MAF [1]: 15.0
- F8 + PI, MAF (U-2 OS cells): −6.3
- F8, MAF (U-2 OS cells): 5.0
- R4 + PI compens, MAF (U-2 OS cells): 12.6
- R4 + PI, MAF (U-2 OS cells): −9.3
- R4, MAF (U-2 OS cells): 9.9

Structure (SMILES): C=Cc1c(C)c2cc3nc(c4c5[nH]c(cc6nc(cc1[nH]2)C(C)=C6CC)c(C)c5C(=O)[C@@H]4C(=O)OC)[C@@H](CCC(=O)O)[C@@H]3C [Pheophorbide A, pheophorbide A]
- D-value, Fumitremorgan C (A549 cell line; [7]): 0.35
- D-value, Probenecid (A549 cell line; [7]): 0.16
- D-value, Verapamil (A549 cell line; [7]): 0.16
- D-value, Fumitremorgan C (HeLa cell line; [8]): 0
- D-value, Probenecid (HeLa cell line; [8]): 0
- D-value, Verapamil (HeLa cell line; [8]): 0
- D-values Post Inhibitor Treatment (compared to uninhibited cells), CsA (CHO K1 cell line; [12]): 0.25
- D-values Post Inhibitor Treatment (compared to uninhibited cells), FTC (CHO K1 cell line; [12]): 0.33
- D-values Post Inhibitor Treatment (compared to uninhibited cells), MK-571 (CHO K1 cell line; [12]): 0.15
- D-values Post Inhibitor Treatment (compared to uninhibited cells), Verapamil (CHO K1 cell line; [12]): 0.14
- D-values Post Inhibitor Treatment (compared to uninhibited cells), CsA (CHO K1 cell line; [13]): 0.25
- D-values Post Inhibitor Treatment (compared to uninhibited cells), FTC (CHO K1 cell line; [13]): 0.34
- D-values Post Inhibitor Treatment (compared to uninhibited cells), MK-571 (CHO K1 cell line; [13]): 0.14
- D-values Post Inhibitor Treatment (compared to uninhibited cells), Verapamil (CHO K1 cell line; [13]): 0.11
- D-value, Fumitremorgan C (CHO K1 cell line; [10]): 0.25
- D-value, Probenecid (CHO K1 cell line; [10]): 0.03
- D-value, Verapamil (CHO K1 cell line; [10]): 0.02
- D-values Post Inhibitor Treatment (compared to uninhibited cells), CsA (CHO K1 cell line; [11]): 0.20
- D-values Post Inhibitor Treatment (compared to uninhibited cells), FTC (CHO K1 cell line; [11]): 0.27
- D-values Post Inhibitor Treatment (compared to uninhibited cells), MK-571 (CHO K1 cell line; [11]): 0.09
- D-values Post Inhibitor Treatment (compared to uninhibited cells), Verapamil (CHO K1 cell line; [11]): 0.18
- D-values Post Inhibitor Treatment (compared to uninhibited cells), CsA (CHO K1 cell line; [14]): 0.4
- D-values Post Inhibitor Treatment (compared to uninhibited cells), FTC (CHO K1 cell line; [14]): 0.41
- D-values Post Inhibitor Treatment (compared to uninhibited cells), MK-571 (CHO K1 cell line; [14]): 0.13
- D-values Post Inhibitor Treatment (compared to uninhibited cells), Verapamil (CHO K1 cell line; [14]): 0.17

Structure (SMILES): COc1cccc2c1C(=O)c1c(O)c3c(c(O)c1C2=O)C[C@@](O)(C(=O)CO)C[C@@H]3O[C@H]1C[C@H](N)[C@H](O)[C@H](C)O1 [Doxorubicin, doxorubicin]
- D-value, Cyclosporine A (A549 cell line; [15]): 0.14
- D-value, FTC (A549 cell line; [15]): 0.18
- D-value, MK-571 (A549 cell line; [15]): 0.24
- D-value, Novobiocin (A549 cell line; [15]): 0.28
- D-value, Verapamil (A549 cell line; [15]): 0.06
- D-value, Cyclosporine A (CHO K1 cell line; [16]): 0.42
- D-value, FTC (CHO K1 cell line; [16]): 0.22
- D-value, MK-571 (CHO K1 cell line; [16]): 0.35
- D-value, Novobiocin (CHO K1 cell line; [16]): 0.32
- D-value, Verapamil (CHO K1 cell line; [16]): 0.27

Structure (SMILES): COc1ccc(CCN(C)CCCC(C#N)(c2ccc(OC)c(OC)c2)C(C)C)cc1OC (stereo not shown) [Verapamil, verapamil]
- R4 + PI compens, MAF [1]: 38.0
- R4 + PI, MAF [1]: 41.3
- R4, MAF [1]: 30.4
- F8 + PI, MAF (U-2 OS cells): 33.0
- F8, MAF (U-2 OS cells): 63.4
- R4 + PI compens, MAF (U-2 OS cells): 54.1
- R4 + PI, MAF (U-2 OS cells): 35.8
- R4, MAF (U-2 OS cells): 42.5
- F8 + PI, D-values (CHO K1 cell line): 0.94
- Fluo-8 ™, D (CHO K1 cell line): 0.92
- R4 + PI, D-values (CHO K1 cell line): 0.96 and 0.95
- Rhod4 ™ (D-values) (CHO K1 cell line): 0.94

Structure (SMILES): O=C1c2c(O)ccc(O)c2C(=O)c2c(NCCNCCO)ccc(NCCNCCO)c21 [Mitoxantrone, mitoxantrone]
- D-value, Cyclosporine A (A549 cell line; [15]): 0.27
- D-value, FTC (A549 cell line; [15]): 0.28
- D-value, MK-571 (A549 cell line; [15]): 0.37
- D-value, Novobiocin (A549 cell line; [15]): 0.28
- D-value, Verapamil (A549 cell line; [15]): 0.12
- D-value, Cyclosporine A (CHO K1 cell line; [16]): 0.34
- D-value, FTC (CHO K1 cell line; [16]): 0.21
- D-value, MK-571 (CHO K1 cell line; [16]): 0.18
- D-value, Novobiocin (CHO K1 cell line; [16]): 0.22
- D-value, Verapamil (CHO K1 cell line; [16]): 0.42

Structure (SMILES): CCN1C(=CC=Cc2oc3ccccc3[n+]2CC)Oc2ccccc21.[I-] [DiOC2(3), 3,3′-diethyloxacarbocyanine iodide]
- D-value, Fumitremorgan C (A549 cell line): 0.03
- D-value, Probenecid (A549 cell line; [7]): 0
- D-value, Verapamil (A549 cell line; [7]): 0.07
- D-value, Fumitremorgan C (HeLa cell line): 0.07
- D-value, Probenecid (HeLa cell line; [8]): 0.06
- D-value, Verapamil (HeLa cell line; [8]): 0
- D-value, Fumitremorgan C (CHO K1 cell line): 0
- D-values Post Inhibitor Treatment (compared to uninhibited cells), CsA (CHO K1 cell line; [17]): 0.94
- D-values Post Inhibitor Treatment (compared to uninhibited cells), FTC (CHO K1 cell line; [17]): 0.16
- D-values Post Inhibitor Treatment (compared to uninhibited cells), MK-571 (CHO K1 cell line; [17]): 0.13
- D-values Post Inhibitor Treatment (compared to uninhibited cells), Verapamil (CHO K1 cell line; [17]): 0.96
- D-value, Probenecid (CHO K1 cell line; [10]): 0.01
- D-value, Verapamil (CHO K1 cell line; [10]): 0.96
- D-values Post Inhibitor Treatment (compared to uninhibited cells), CsA (CHO K1 cell line; [14]): 0.98
- D-values Post Inhibitor Treatment (compared to uninhibited cells), FTC (CHO K1 cell line; [14]): 0.11
- D-values Post Inhibitor Treatment (compared to uninhibited cells), MK-571 (CHO K1 cell line; [14]): 0.13
- D-values Post Inhibitor Treatment (compared to uninhibited cells), Verapamil (CHO K1 cell line; [14]): 0.98

Structure (SMILES): CCCN(CCC)S(=O)(=O)c1ccc(C(=O)O)cc1 [Probenecid, probenecid]
- R4 + PI compens, MAF [1]: 38.5
- R4 + PI, MAF [1]: 47.7
- R4, MAF [1]: 34.0
- F8 + PI, MAF (U-2 OS cells): 23.1
- F8, MAF (U-2 OS cells): 57.5
- R4 + PI compens, MAF (U-2 OS cells): 42.4
- R4 + PI, MAF (U-2 OS cells): 24.0
- R4, MAF (U-2 OS cells): 41.2

Source: patent publication US9097673B2, “Processes and kits for determining multi-drug resistance of cells” (ENZO LIFE SCIENCES, INC., priority 2010, dated 2015)
